Measured values published in ChEMBL document CHEMBL1157539, “Thousands of chemical starting points for antimalarial lead identification” (Nature, 2010).

The compounds below were run on Plasmodium falciparum (assay: GSK_TCMDC: Inhibition of Plasmodium falciparum 3D7 in whole erythrocytes, using parasite LDH activity as an index of growth.). Details: Plasmodium falciparum, 3D7.
Format: functional, organism-based
`COc1ccc(S(=O)(=O)NC2CCN(c3ccnc4cc(Cl)ccc34)C2)cc1` (stereo not drawn) was tested, and the XC50 was 493 nM. In the case of `CN(C)CCCNCc1ccc(-c2ccc(CNCCOc3ccccc3)cc2)cc1`, the XC50 is reported as 18.6 nM. `O=C(Cn1c(SCc2cccc(F)c2F)cc(=O)c2ccccc21)N(CCc1c[nH]cn1)Cc1ccc(-c2ccc(C(F)(F)F)cc2)cc1` showed an XC50 of 801 nM. `C[C@@H]1CN(C(c2cccc(O)c2)c2cccc(C(=O)N(C)c3cccc(F)c3)c2)[C@@H](C)CN1C(c1cccc(O)c1)c1cccc(C(=O)N(C)c2cccc(F)c2)c1` (stereo partly drawn) was tested, and the XC50 was 918 nM. In the case of `Nc1cccc(CNCc2cccc(-c3cccc(-c4nc5ccccc5[nH]4)c3)c2)c1`, the XC50 is reported as 615 nM. Work on `COc1ccc(O)c(C(=O)NCCc2ccc(OC)c(-c3ccc(C(C)(C)C)cc3)c2)c1` yielded an XC50 of 1030 nM. With `Cc1cc(NC(=O)c2cccs2)ccc1OC1CCN(Cc2ccc(C#N)cc2)CC1` the XC50 was 721 nM. In the case of `Cc1cc(NCC2CCN(CC3CCCCC3)C2)nc(Nc2ccc(Br)cc2)n1` (stereo not drawn), the XC50 is reported as 879 nM. With `O=C(Nc1ccc2nccc(N3CCN4CCC[C@H]4C3)c2c1)c1ccc(Cl)c(Cl)c1` the XC50 was 340 nM. `COc1ccc(C(=O)NC2CCN(c3ccnc4cc(Cl)ccc34)C2)cc1` (stereo not drawn) gave an XC50 of 231 nM. `c1ccc2[nH]c(-c3ccc(-c4ccc(CNCC5CCCO5)cc4)s3)nc2c1` (stereo not drawn) was tested, and the XC50 was 869 nM. Work on `CCc1ccc(C2CCN(CCCCNC(=O)c3ccc(NC(=O)c4ccc(Cl)cc4)cc3)CC2)c(OCC(=O)OC)c1` yielded an XC50 of 1030 nM. For `CCN(CC)CCN(Cc1ccc(-c2ccc(Br)cc2)cc1)C(=O)Cn1c(CCc2cccc(F)c2F)nc(=O)c2ccccc21`, the XC50 was 788 nM. With `CC(C)[C@H](NC(=O)c1c(CN2CCC(N3CCCCC3)CC2)c(-c2ccccc2)nc2cc(O)ccc12)c1ccccc1` the XC50 was 741 nM. Compound `O=C(/C=C/c1c(Cl)cccc1Cl)NC1CCC(CN2CCC(c3c[nH]c4ccncc34)CC2)CC1` (stereo not drawn) has an XC50 of 158 nM. Compound `CN(c1ccc(F)cc1)S(=O)(=O)c1ccc(Cl)c(C(=O)Nc2cccc(C#N)c2)c1` has an XC50 of 699 nM. Compound `NCc1ccc(-c2ccccc2CNC2CCN(Cc3ccccc3)CC2)cc1` has an XC50 of 765 nM. For `COc1cc(C(C)C)nc2ccc(NC(=O)c3ccc(C(=O)Nc4ccc5nc(C(C)C)cc(OC)c5c4)cc3)cc12`, the XC50 was 579 nM. For `O=C(N[C@@H](Cc1ccccc1)[C@H](O)CNC1CCCCC1)c1cc(C2CCCC2)cc(N2CCCC2=O)c1`, the XC50 was 169 nM. `Cc1cccc2nc(-c3cccc(-c4cccc(NC(=O)NC5CC5c5ccccc5)c4)c3)[nH]c12` (stereo not drawn) gave an XC50 of 705 nM. Work on `COc1ccc(NC(=O)[C@H](CC(C)C)Nc2ccnc(NCCc3ccc(F)cc3)n2)cc1` yielded an XC50 of 1600 nM. `COc1ccc(CCn2c(C3CCCCC3)nc3oc4ccccc4c(=O)c3c2=O)cc1` was tested, and the XC50 was 952 nM. In the case of `Cc1ccccc1Nc1cc(Nc2ccccc2C)c2ccccc2n1`, the XC50 is reported as 782 nM. With `COc1ccc(C2CC(c3ccccc3)=NN2C(=O)c2ccc(Br)o2)cc1` (stereo not drawn) the XC50 was 323 nM. For `CCCCCc1cc(O)c2c(c1)OC(C)(C)CC2C1=CCN(Cc2cnc3ccccc3c2)CC1` (stereo not drawn), the XC50 was 276 nM. `Cn1nc(-c2ccc(CNC3CCc4ccccc43)cc2)c2cnc(NCCN3CCCC3)nc21` (stereo not drawn) was tested, and the XC50 was 1350 nM. With `Cc1cc(C)c(C)c(OCCCON2C(=N)N=C(N)NC2(C)C)c1C` the XC50 was 3.2 nM. Compound `CCC(C)NS(=O)(=O)c1ccc2nc(Nc3ccc(C)cc3)n(C3CCCCC3)c2c1` (stereo not drawn) has an XC50 of 462 nM. In the case of `Cc1[nH]c2ccccc2c(=O)c1Br`, the XC50 is reported as 843 nM. In the case of `O=C(Cc1ccccn1)Nc1cccc(-c2cccc(-c3nc4cc(C(F)(F)F)ccc4[nH]3)c2)c1`, the XC50 is reported as 610 nM. `Cc1cc(F)ccc1-c1nc(NCC(O)CNCCc2ccccc2)nc2c1ccc(=O)n2-c1c(F)cccc1F` (stereo not drawn) showed an XC50 of 539 nM. In the case of `CC(C)CCNc1nc2ccccc2nc1Nc1cccc(C(F)(F)F)c1`, the XC50 is reported as 905 nM. In the case of `NCC1CCCN1Cc1ccc(-c2cccc(-c3nc4cc(C(F)(F)F)ccc4[nH]3)c2)cc1` (stereo not drawn), the XC50 is reported as 833 nM. Compound `CN1CCN(CC2(Nc3nccc(NCCc4cn(C)c5ccccc45)n3)CCCCC2)CC1` has an XC50 of 1810 nM. With `Oc1cccc(CNCCCN(Cc2ccccc2)c2ccccc2)c1` the XC50 was 600 nM. `COc1ccc2c(OC)c(CNCCCCCCNCc3ccc4cc(OC)ccc4c3OC)ccc2c1` gave an XC50 of 920 nM. With `CC(C)CCN(Cc1cncn1Cc1cccc(C(F)(F)F)c1)C(=O)c1cncc(-c2ccccc2)c1` the XC50 was 774 nM. With `COC(=O)Cn1c(C2CCN(CC3CCN(C(=O)/C=C/c4ccc(Cl)c(Cl)c4)CC3)CC2)nc2ccccc21` the XC50 was 1200 nM. Compound `Cc1c(N=O)cc(C(C)(C)C)c(O)c1C(=O)Nc1ccc([N+](=O)[O-])cc1Cl` has an XC50 of 775 nM. For `CN(Cc1cc(C(F)(F)F)cc(C(F)(F)F)c1)C(=O)C1CNCC1c1ccc(F)cc1` (stereo not drawn), the XC50 was 828 nM. In the case of `O=C(NC(Nc1ccc([N+](=O)[O-])cc1)C(Cl)(Cl)Cl)c1ccc(Cl)cc1` (stereo not drawn), the XC50 is reported as 782 nM. Work on `Cc1cccc2nc(-c3cccc(-c4ccc(C(=O)NCCc5ccc(O)c(=O)[nH]5)cc4)c3)[nH]c12` yielded an XC50 of 1190 nM. Compound `Cn1cnc2c(Nc3ccncc3)nc(-c3ccc(OC(F)(F)F)cc3)nc21` has an XC50 of 1100 nM. `O=C(Nc1ccc(C(=O)Nc2cccc(C3=NCCN3)c2)cc1)Nc1ccc(C2=NCCN2)cc1` gave an XC50 of 96 nM. For `Cc1ccc2nc(C)cc(Nc3ccccc3O)c2c1`, the XC50 was 791 nM. With `c1ccc2c(c1)CN(Cc1ccsc1)CC1(CCN(Cc3c[nH]c4cnccc34)CC1)O2` the XC50 was 1150 nM. Work on `N=C(NCCc1ccccc1Cl)c1ccc2ccccc2c1` yielded an XC50 of 1630 nM. `COc1ccc2ccccc2c1CCCCN1CCN(CC(c2ccc(F)cc2)N2CCN(C3CCCC3)CC2)CC1` (stereo not drawn) was tested, and the XC50 was 772 nM. `O=C(Nc1ccc(OC2CCN(Cc3ccsc3)C2)c(Cl)c1)c1ccc(F)cc1` (stereo not drawn) gave an XC50 of 943 nM. In the case of `O=C(O)CCSSc1cccc[n+]1[O-]`, the XC50 is reported as 808 nM. Work on `COc1c(CN2CCCC2)cccc1-c1cc2c(-c3ccc(C(=O)O)c(C(C)C)c3)ccnc2[nH]1` yielded an XC50 of 439 nM. `COc1c(C2CCN(CCCCNC(=O)c3ccc(-c4ccc(C#N)cc4)c(O)c3)CC2)ccc2c1CCCC2` was tested, and the XC50 was 199 nM. With `CCCCNC[C@@H](O)[C@H](Cc1ccccc1)NC(=O)c1cc(NCC)cc(N2CCCCS2(=O)=O)c1` the XC50 was 398 nM. `CCCC[C@H](NC(=O)O[C@H](COc1ccc(OCc2ccccc2)cc1)C(C)(C)C)C(=O)C(=O)Nc1cc[nH]n1` was tested, and the XC50 was 991 nM. `COc1cccc(-c2cc3nc4c(c(NCCCn5ccnc5)n3n2)CCCC4)c1` showed an XC50 of 681 nM. For `O=C(NCCCCN1CCC(c2ccc(Br)cc2)CC1)c1ccc(NC(=O)c2ccc(Cl)cc2)cc1`, the XC50 was 712 nM. In the case of `CN1CCN(c2ccc(CNc3ccc4ncc(-c5cccc(OC(F)(F)F)c5)n4n3)cc2)CC1`, the XC50 is reported as 862 nM. `Cc1noc(C)c1-c1ccc2c(Nc3ccccc3C(C)(C)C)c(C(=O)NC3CCCC3)cnc2c1` was tested, and the XC50 was 1040 nM. Work on `CC[C@H](C)CNC(=O)c1cncc(-c2cccc(CNCCCc3ccccc3)c2)c1` yielded an XC50 of 1170 nM. `CNCCNCc1ccc(-c2ccc(-c3nc4cc(C(F)(F)F)ccc4[nH]3)cc2)cc1` showed an XC50 of 314 nM. For `COc1cc(Cc2cnc(N)nc2N)cc(OCC(C)(C)C(=O)O)c1OC`, the XC50 was 1110 nM. With `O=C(NC1CCN(CCc2c[nH]c3ccc(F)cc23)CC1)c1ncc(-c2ccccc2)[nH]1` the XC50 was 868 nM. Compound `O=C(Nc1ccc(Cl)cc1)Nc1ccc(-c2cccc(-c3nc4ccccc4[nH]3)c2)cc1` has an XC50 of 157 nM. `Cc1cc(CN2CCC(N3CC(c4ccccc4)(c4ccccc4)OCC3=O)C2)ccc1O` (stereo not drawn) was tested, and the XC50 was 1080 nM. `COc1cc(F)c2ncc(Cl)c(CCN3CCC(NCc4ccc5c(n4)NC(=O)CO5)CC3)c2c1` showed an XC50 of 504 nM. In the case of `COc1cc2nc(NCC3CCN(C(=O)c4ccc(-c5ccc(C(=O)N(C)C)cc5C)cc4)CC3)nc(N)c2cc1OC`, the XC50 is reported as 948 nM. `O=S(=O)(Nc1cccc(CCN2CCC(N3CCCCC3)CC2)c1)c1ccc2c(c1)OCCO2` gave an XC50 of 1230 nM. Work on `CCCNC(=O)C1CCN(C(c2ccc(Cl)cc2)c2ccc(Cl)cc2)CC1` yielded an XC50 of 479 nM.
